# Results from patent US20260234215A1, “Anti-Inflammatory Bio-Active Collagen Hybridizing Peptides and Methods of Using Thereof” (3HELIX, INC., priority 2023, published 2026).
# Test system: Jurkat T-Cells (E6-1 from ATCC)
# Assay: In vitro T-cell activation/inhibition assay (anti-CD3/anti-CD28 stimulation, IL-2 ELISA)
# Format: cell-based, human
# Conditions: 37° C., CHP 100 μM with gelatin 0.5 mg/mL
# Experimental: A particular in vitro activation assay was carried out to evaluate the effects that the anti-inflammatory bioactive LAIR-1 CHPs have on T-cells. Details regarding the experimental conditions for the T-cell assay with Jukat T-cells are depicted in FIG. 13. As shown, Jukat T-cells were incubated with activating antibodies against CD3 and CD28 receptors to initiate activation. […] T-cell activation was then assessed by ELISA for IL-2 secretion in media supernatant. Activated T-cells express high levels of IL-2.
# Secreted IL-2 was measured for the following conditions: negative control which were unactivated T cells; positive control T cells which received anti-CD3 and anti-CD28 antibodies; positive control t cells which received stimulating antibodies in the presence of soluble gelatin; and the CHP test condition which received stimulating antibodies in the presence of LAIR1-CHPs.
# For the T-cell activation/inhibition experimental protocol, three monomeric CHPs (LAIR-1 HTm CHP1 [SEQ ID NO: 87, wherein x=4 and y=4], LAIR-1 HTm CHP2 [SEQ ID NO: 2, wherein x=4 and y=4], and LAIR-1 HTm CHP3 [SEQ ID NO: 106]) were tested for T-cell activation/inhibition. First, CHPs were incubated with the gelatin under test conditions for at least 24 hours at 37° C. The final gelatin concentration in the media for incubation was 0.5 mg/mL. […]
substance,measurement,setting,value
Biotin-GGG-(GPO)9 [LAIR-1 HTm CHP3],effect on IL 2 production compared to the gelatin positive control,72 hours post-stimulation,did not have an effect
same,effect on IL 2 production compared to the gelatin positive control,96 hours post-stimulation,did not have an effect
